Test: molar heat capacity at constant pressure
Details: 101.33 kPa, Crystal, Small (less than 1 g) adiabatic calorimetry

[Al+3].[Al+3].[O-2].[O-2].[O-2] [aluminum oxide (Al2O3)]
Details | molar heat capacity at constant pressure [J/K/mol]
67.51 K | 4.23
72.34 K | 5.283
77.04 K | 6.242
81.8 K | 7.403
86.61 K | 8.725
91.44 K | 10.14
96.31 K | 11.67
101.2 K | 13.33
106.12 K | 15.05
111.05 K | 16.78
116.01 K | 18.55
120.97 K | 20.4
125.95 K | 22.45
126.3 K | 22.61
130.94 K | 24.45
131.11 K | 24.51
136.11 K | 26.55
141.13 K | 28.63
146.18 K | 30.36
151.22 K | 32.53
156.26 K | 34.6
161.32 K | 36.54
166.38 K | 38.67
171.45 K | 40.51
176.54 K | 42.37
181.62 K | 44.42
186.71 K | 46.27
191.8 K | 48.19
192.43 K | 48.27
197.63 K | 50.37
202.75 K | 52.12
207.86 K | 53.85
212.97 K | 55.55
218.09 K | 57.33
223.2 K | 59.08
228.33 K | 60.72
233.45 K | 62.37
238.56 K | 63.95
243.82 K | 65.47
248.97 K | 66.83
253.98 K | 68.28
259.13 K | 69.78
264.27 K | 71.19
269.43 K | 72.53
274.59 K | 73.76
279.73 K | 74.97
284.88 K | 76.16
290.03 K | 77.34
295.19 K | 78.6
300.35 K | 79.79
305.76 K | 80.81
311 K | 82
316.16 K | 83.02
321.33 K | 83.65
326.51 K | 84.83
331.66 K | 86.08

O=C(O)c1ccccc1 [benzoic acid]
Details | molar heat capacity at constant pressure [J/K/mol]
15.95 K | 7.243
17.21 K | 7.834
19 K | 9.964
20.93 K | 12.14
22.91 K | 14.48
25.23 K | 16.99
27.83 K | 19.32
30.45 K | 22.55
33.46 K | 25.66
36.82 K | 28.56
40.35 K | 31.83
42.49 K | 34.49
44.38 K | 35.05
46.36 K | 38.04
50.06 K | 39.2
52.26 K | 40.57
54.24 K | 41.94
54.48 K | 43.06
56.71 K | 43.66
59.17 K | 46.1
59.64 K | 45.51
63.04 K | 47.67
67.38 K | 50.03
72.18 K | 52.48
77.01 K | 54.7
81.66 K | 56.45
86.47 K | 58.38
91.42 K | 60.83
96.33 K | 62.66
101.31 K | 64.69
106.39 K | 66.75
111.42 K | 68.59
116.46 K | 70.27
121.51 K | 72.23
126.57 K | 74.39
131.52 K | 76.4
136.54 K | 78.39
141.64 K | 80.14
146.72 K | 81.95
151.83 K | 83.84
156.96 K | 85.94
162.08 K | 87.95
167.21 K | 90.16
172.34 K | 92.08
177.47 K | 93.88
182.61 K | 95.82
187.75 K | 97.76
192.89 K | 100.22
198.03 K | 102.35
203.11 K | 104.33
208.2 K | 106.33
213.34 K | 108.35
218.49 K | 110.69
223.64 K | 113.13
228.8 K | 115.06
233.96 K | 117.66
239.1 K | 120.1
244.26 K | 122.38
249.39 K | 124.56
254.51 K | 127.05
259.67 K | 129.62
264.84 K | 131.98
269.99 K | 134.13
275.13 K | 137.14
280.31 K | 138.73
285.48 K | 141.06
290.65 K | 143.42
296.6 K | 146.34
302.17 K | 148.97
306.93 K | 151.12
312.15 K | 153.27
317.33 K | 155.37
322.49 K | 157.74
326.5 K | 160.6
330.48 K | 161.44
335.65 K | 163.8
340.82 K | 165.96

[Cu] [copper]
Details | molar heat capacity at constant pressure [J/K/mol]
14.2 K | 0.1027
15.68 K | 0.2097
16.38 K | 0.2384
16.77 K | 0.2351
17.8 K | 0.3079
19.33 K | 0.4049
21 K | 0.5507
22.76 K | 0.7024
24.89 K | 0.9364
27.19 K | 1.257
29.54 K | 1.621
32.17 K | 2.071
35.07 K | 2.634
35.81 K | 2.796
38.36 K | 3.344
38.95 K | 3.483
42.31 K | 4.276
46.05 K | 5.166
50.21 K | 6.197
54.08 K | 7.128
54.62 K | 7.296
56.1 K | 7.632
58.53 K | 8.226
59.11 K | 8.36
59.5 K | 8.478
63.71 K | 9.435
63.87 K | 9.508
68.55 K | 10.6
73.28 K | 11.6
78.07 K | 12.55
82.91 K | 13.41
87.8 K | 14.23
92.71 K | 15
93.13 K | 15.06
97.66 K | 15.72
97.7 K | 15.7
102.69 K | 16.38
107.7 K | 16.96
112.73 K | 17.49
117.78 K | 18.01
122.84 K | 18.49
127.92 K | 18.95
133 K | 19.37
138.1 K | 19.74
143.21 K | 20.06
148.33 K | 20.36
151.4 K | 20.55
153.45 K | 20.66
156.5 K | 20.85
158.58 K | 20.95
161.61 K | 21.11
166.74 K | 21.37
171.89 K | 21.59
177.04 K | 21.77
182.2 K | 21.94
187.36 K | 22.15
192.53 K | 22.25
197.69 K | 22.35
202.86 K | 22.6
203.62 K | 22.66
208.02 K | 22.73
208.7 K | 22.81
213.88 K | 22.96
219.05 K | 23.11
224.22 K | 23.25
229.39 K | 23.33
234.57 K | 23.45
239.76 K | 23.52
244.94 K | 23.6
247.71 K | 23.62
250.12 K | 23.7
253.15 K | 23.76
255.31 K | 23.79
261.84 K | 23.83
270.43 K | 24.07
275.79 K | 24.13
280.97 K | 24.2
286.16 K | 24.27
291.35 K | 24.32
296.54 K | 24.39
301.73 K | 24.51
306.93 K | 24.55
312.11 K | 24.54
317.29 K | 24.59
322.48 K | 24.64
327.67 K | 24.69
332.85 K | 24.81
338.04 K | 24.86
343.25 K | 24.88
348.43 K | 25.04
